Results on five compounds are retold here after patent US20260184675A1, “CHIRAL ISOMERIC SULFITE COMPOUND AND APPLICATION THEREOF” (Chengdu Hanova BioSciences Co., Ltd, priority 2024, published 2026).

SMILES strings stand for the structures.

What all share (type): in vivo
The test system of assay [1] is pest eggs of Tetranychus cinnabarinus. The assay can be described thus: Effect on hatching of pest eggs of Tetranychus cinnabarinus, leaf disc method. The note with it: for Hatching rate (%): 7 days after insecticide delivery; for inhibitory effect on the hatching of pest eggs of Tetranychus cinnabarinus (in words): 1 ppm. The method in brief: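 Adult female mites laid eggs on 2.0 cm Vicia faba leaf discs for up to 36 h; discs with counted eggs were dipped 10 s in compound solution or water, then kept moist. Hatched eggs were counted 7 days after treatment and control effect was calculated by formula.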

Another assay concerns eggs of Thrips. Nature of the assay: Effect on hatching of eggs of Thrips, leaf disc method. The conditions noted are these: 100 ppm; for Hatching rate (%): 5 days after insecticide delivery. The method in brief: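 Thrip egg hatching was tested by the leaf disc method on Vicia faba discs 2.0 cm across, placed over wetted filter paper. Egg numbers on each disc were counted under a microscope before treatment. Discs were then dipped for 10 seconds in clean water or a compound solution at 100 ppm. They were kept moist under normal conditions, and hatching was surveyed five days after insecticide delivery.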

The subject of assay [2] is eggs of Tetranychus urticae. Nature of the assay: Effect on hatching of eggs of Tetranychus urticae, leaf disc method. The conditions noted are these: 5 ppm; for Hatching rate (%): 5 days after insecticide delivery. A digest of the protocol:
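Twenty adult female Tetranychus urticae mites were placed on 2.0 cm Vicia faba leaf discs over wetted filter paper in lidded dishes kept moist, and removed within 36 hours. Eggs on each disc were counted under a microscope. The egg-bearing discs were dipped for 10 seconds in a compound solution at 5 ppm or in clear water, then kept moist, and hatching was checked five days after treatment.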

Where [3] appears, read: Replicate 1, listed as 19-(S, S).
[4] abbreviates: Replicate 2, listed as 19-(S, S).
[5] abbreviates: Replicate 3, listed as 19-(S, S).
Setting [6] is: Replicate 1, listed as 19′-(R, R).
Setting [7] is: Replicate 2, listed as 19′-(R, R).

For the compound `CC[C@H](COc1ccc(Cl)cc1Cl)OS(=O)OCCF` (stereo partly drawn) [19-(R,S)], the “Hatching rate (%)” value in assay [1] (0.25 mg/L, Replicate 1) worked out at 39.68%; in assay [1] (0.25 mg/L, Replicate 2), 41.38%; in assay [1] (0.5 mg/L, Replicate 1) it was 2.08%; in assay [1] (0.5 mg/L, Replicate 2), 3.57%; in assay [1] (1 mg/L, Replicate 1), 0.00%; in assay [1] (1 mg/L, Replicate 2), 0.00%. The “Hatching rate (%)” value (with eggs of Thrips (Replicate 1); in the assay on eggs of Thrips (Replicate 2); in the assay on eggs of Thrips (Replicate 3); in assay [2] (Replicate 1); in assay [2] (Replicate 2)) was 0.00% in each case. The “Number of hatched larvae 7 days after insecticide delivery” value (“Number of hatched larvae 7 days” for short) in assay [1] (0.25 mg/L, Replicate 1) was determined as 38; in assay [1] (0.25 mg/L, Replicate 2), 34; in assay [1] (0.5 mg/L, Replicate 1), 47; in assay [1] (0.5 mg/L, Replicate 2) it was 54; in assay [1] (1 mg/L, Replicate 1), 59; in assay [1] (1 mg/L, Replicate 2) it was 67. Besides, the “inhibitory effect on the hatching of pest eggs of Tetranychus cinnabarinus (in words)” value (from here on “inhibitory effect on the hatching”) in assay [1] was “excellent inhibitory effects”. In addition, the “inhibitory activity on the hatching of eggs of Thrips (in words)” value (from here on “inhibitory activity … of Thrips (in words)”) in the assay with eggs of Thrips was “strong inhibitory activities”. Further, the “Number of hatched larvae 5 days after insecticide delivery” value (shortened to “Number of hatched larvae 5 days”) (in the assay with eggs of Thrips (Replicate 1); in the assay with eggs of Thrips (Replicate 2); in the assay with eggs of Thrips (Replicate 3); in assay [2] (Replicate 1); in assay [2] (Replicate 2)) was 0 throughout. Also, the “inhibitory activity on the hatching of eggs of Tetranychus urticae (in words)” value in assay [2] is given as “strong inhibitory activities”.

For the compound `CC[C@@H](COc1ccc(Cl)cc1Cl)OS(=O)OCCF` (stereo partly drawn) [19-(S,R)], the “Hatching rate (%)” value in assay [1] (0.25 mg/L, Replicate 1) is on record as 43.55%; in assay [1] (0.25 mg/L, Replicate 2), 45.61%; in assay [1] (0.5 mg/L, Replicate 1), 5.13%; in assay [1] (0.5 mg/L, Replicate 2), 5.26%; in assay [1] (1 mg/L, Replicate 1), 0.00%; in assay [1] (1 mg/L, Replicate 2), 0.00%. The “Hatching rate (%)” value (in the assay on eggs of Thrips (Replicate 1); in the assay on eggs of Thrips (Replicate 2); in the assay with eggs of Thrips (Replicate 3); in assay [2] (Replicate 1); in assay [2] (Replicate 2)) was 0.00% throughout. The “Number of hatched larvae 7 days” value is reported as 35 in assay [1] (0.25 mg/L, Replicate 1); 31 in assay [1] (0.25 mg/L, Replicate 2); 74 in assay [1] (0.5 mg/L, Replicate 1); 54 in assay [1] (0.5 mg/L, Replicate 2); 60 in assay [1] (1 mg/L, Replicate 1); 68 in assay [1] (1 mg/L, Replicate 2). Moreover, the “inhibitory effect on the hatching” value in assay [1] was “excellent inhibitory effects”. Moreover, the “inhibitory activity … of Thrips (in words)” value in the assay on eggs of Thrips was “strong inhibitory activities”. For the same compound, the “Number of hatched larvae 5 days” value (with eggs of Thrips (Replicate 1); in the assay with eggs of Thrips (Replicate 2); in the assay on eggs of Thrips (Replicate 3); in assay [2] (Replicate 1); in assay [2] (Replicate 2)) was 0 each time. Besides, the “inhibitory activity on the hatching of eggs of Tetranychus urticae (in words)” value in assay [2] is recorded as “strong inhibitory activities”.

Consider `CCC(COc1ccc(Cl)cc1Cl)OS(=O)OCCF` [19-(S,S)], for which the “Hatching rate (%)” value in assay [1] (0.25 mg/L, Replicate 1) was determined as 65.52%; in assay [1] (0.25 mg/L, Replicate 2), 69.86%; in assay [1] (0.5 mg/L, Replicate 1), 20.90%; in assay [1] (0.5 mg/L, Replicate 2), 21.31%; in assay [1] (1 mg/L, Replicate 1), 15.25%; in assay [1] (1 mg/L, Replicate 2), 14.29%. For the same compound, the “Hatching rate (%)” value with eggs of Thrips (setting [3]) came out at 14.4%; in the assay on eggs of Thrips (setting [4]), 13.89%; with eggs of Thrips (setting [5]), 11.46%; in assay [2] (setting [3]) it was 17.48%; in assay [2] (setting [4]), 14.74%. The “Number of hatched larvae 7 days” value in assay [1] (0.25 mg/L, Replicate 1) was 20; in assay [1] (0.25 mg/L, Replicate 2) it was 22; in assay [1] (0.5 mg/L, Replicate 1), 53; in assay [1] (0.5 mg/L, Replicate 2), 48; in assay [1] (1 mg/L, Replicate 1), 50; in assay [1] (1 mg/L, Replicate 2), 54. Moreover, the “Number of hatched larvae 5 days” value in the assay with eggs of Thrips (setting [3]) amounted to 18; with eggs of Thrips (setting [4]) it was 15; in the assay on eggs of Thrips (setting [5]), 11; in assay [2] (setting [3]), 18; in assay [2] (setting [4]) it was 14.

Take `CCC(COS(=O)OCCF)Oc1ccc(Cl)cc1Cl` [19′-(R,R)]: the “Hatching rate (%)” value is recorded as 45.07% in assay [1] (0.25 mg/L, Replicate 1); 44.90% in assay [1] (0.25 mg/L, Replicate 2); 5.77% in assay [1] (0.5 mg/L, Replicate 1); 4.48% in assay [1] (0.5 mg/L, Replicate 2); 0.00% in assay [1] (1 mg/L, Replicate 1); 0.00% in assay [1] (1 mg/L, Replicate 2). Further, the “Hatching rate (%)” value (in the assay with eggs of Thrips (setting [6]); with eggs of Thrips (setting [7]); in the assay with eggs of Thrips (Replicate 3); in assay [2] (setting [6]); in assay [2] (setting [7])) was 0.00% each time. Moreover, the “Number of hatched larvae 7 days” value in assay [1] (0.25 mg/L, Replicate 1) is 39; in assay [1] (0.25 mg/L, Replicate 2) it was 27; in assay [1] (0.5 mg/L, Replicate 1), 49; in assay [1] (0.5 mg/L, Replicate 2), 64; in assay [1] (1 mg/L, Replicate 1), 57; in assay [1] (1 mg/L, Replicate 2), 69. In addition, the “inhibitory effect on the hatching” value in assay [1] is “excellent inhibitory effects”. In addition, in the assay on eggs of Thrips, the “inhibitory activity … of Thrips (in words)” value was “strong inhibitory activities”. Also, the “Number of hatched larvae 5 days” value (in the assay on eggs of Thrips (setting [6]); in the assay with eggs of Thrips (setting [7]); in the assay with eggs of Thrips (Replicate 3); in assay [2] (setting [6]); in assay [2] (setting [7])) was 0 each time. For the same compound, the “inhibitory activity on the hatching of eggs of Tetranychus urticae (in words)” value in assay [2] is recorded as “strong inhibitory activities”.

Turning to `CC[C@H](COS(=O)OCCF)Oc1ccc(Cl)cc1Cl` (stereo partly drawn) [19′-(R,S)], the “Hatching rate (%)” value in assay [1] (0.25 mg/L, Replicate 1) was 70.31%; in assay [1] (0.25 mg/L, Replicate 2), 71.43%; in assay [1] (0.5 mg/L, Replicate 1) it was 46.48%; in assay [1] (0.5 mg/L, Replicate 2), 44.93%; in assay [1] (1 mg/L, Replicate 1) it was 6.00%; in assay [1] (1 mg/L, Replicate 2), 6.45%. Further, the “Hatching rate (%)” value was found to be 9.02% in the assay with eggs of Thrips (Replicate 1); 9.18% in the assay on eggs of Thrips (Replicate 2); 8.74% in the assay on eggs of Thrips (Replicate 3); 12.66% in assay [2] (Replicate 1); 13.25% in assay [2] (Replicate 2). The “Number of hatched larvae 7 days” value is 19 in assay [1] (0.25 mg/L, Replicate 1); 20 in assay [1] (0.25 mg/L, Replicate 2); 38 in assay [1] (0.5 mg/L, Replicate 1); 38 in assay [1] (0.5 mg/L, Replicate 2); 47 in assay [1] (1 mg/L, Replicate 1); 58 in assay [1] (1 mg/L, Replicate 2). Also, the “Number of hatched larvae 5 days” value in the assay on eggs of Thrips (Replicate 1) was determined as 12; in the assay on eggs of Thrips (Replicate 2), 9; with eggs of Thrips (Replicate 3), 9; in assay [2] (Replicate 1), 10; in assay [2] (Replicate 2), 11.
